27 molecules from ChEMBL document CHEMBL4017512 (J Med Chem, 2017) can be followed below.

A short description of test [1]: Cytotoxicity against human HCT116/VM46 cells assessed as reduction in cell viability after 72 hrs by phosphatase assay. In kind it is cell-based. The conditions noted are these: HCT-116/VM46, 72 h.
In test [2] the test system is HCT-116. Put plainly: Antiproliferative activity against human HCT116 cells after 72 hrs by phosphatase assay. In kind it is functional, cell-based. Particulars: HCT-116, 72 h.
The test system of test [3] is L1210. As to the kind of experiment: Antiproliferative activity against mouse L1210 cells after 72 hrs by phosphatase assay. Particulars: L1210, 72 h. Type of test: functional, cell-based.

For the molecule `CC[C@]1(NC(=O)C(c2ccccc2)c2ccccc2)C[C@H]2CN(CCc3c([nH]c4ccccc34)[C@@](C(=O)OC)(c3cc4c(cc3OC)N(C)[C@H]3[C@@](O)(C(=O)OC)[C@H](OC(C)=O)[C@]5(CC)C=CCN6CC[C@]43[C@@H]65)C2)C1`, the IC50 (as a rule, the point on the concentration scale where inhibition reaches its midpoint) in test [1] is 5100 nM; in test [2], 3800 nM; in test [3] it was 760 nM.
On the same counts, the results for `CC[C@]1(NC(=O)C2CCN(C)CC2)C[C@H]2CN(CCc3c([nH]c4ccccc34)[C@@](C(=O)OC)(c3cc4c(cc3OC)N(C)[C@H]3[C@@](O)(C(=O)OC)[C@H](OC(C)=O)[C@]5(CC)C=CCN6CC[C@]43[C@@H]65)C2)C1` are 6600 nM, 4400 nM and 5300 nM.
For the molecule `CC[C@]1(NC(=O)c2ccc(SC)cc2)C[C@H]2CN(CCc3c([nH]c4ccccc34)[C@@](C(=O)OC)(c3cc4c(cc3OC)N(C)[C@H]3[C@@](O)(C(=O)OC)[C@H](OC(C)=O)[C@]5(CC)C=CCN6CC[C@]43[C@@H]65)C2)C1`, the IC50 came out at 6.8 nM in test [1], 0.5 nM in test [2] and 0.4 nM in test [3].
On the same counts, the results for `CC[C@]1(NC(=O)/C=C/c2ccoc2)C[C@H]2CN(CCc3c([nH]c4ccccc34)[C@@](C(=O)OC)(c3cc4c(cc3OC)N(C)[C@H]3[C@@](O)(C(=O)OC)[C@H](OC(C)=O)[C@]5(CC)C=CCN6CC[C@]43[C@@H]65)C2)C1` are 20 nM, 0.7 nM and 0.7 nM.
On the same counts, the results for `CC[C@]1(NC(=O)c2cccc(C(C)C)c2)C[C@H]2CN(CCc3c([nH]c4ccccc34)[C@@](C(=O)OC)(c3cc4c(cc3OC)N(C)[C@H]3[C@@](O)(C(=O)OC)[C@H](OC(C)=O)[C@]5(CC)C=CCN6CC[C@]43[C@@H]65)C2)C1` are 65 nM, 8.7 nM and 7.5 nM.
As for `CC[C@]1(NC(=O)c2ccc(NC(=O)OC)cc2)C[C@H]2CN(CCc3c([nH]c4ccccc34)[C@@](C(=O)OC)(c3cc4c(cc3OC)N(C)[C@H]3[C@@](O)(C(=O)OC)[C@H](OC(C)=O)[C@]5(CC)C=CCN6CC[C@]43[C@@H]65)C2)C1`, the IC50 stood at 55 nM in test [1], 0.8 nM in test [2] and 1.5 nM in test [3].
Taken in the same sequence, the figures for `CC[C@]1(NC(=O)c2cccc(Cl)c2)C[C@H]2CN(CCc3c([nH]c4ccccc34)[C@@](C(=O)OC)(c3cc4c(cc3OC)N(C)[C@H]3[C@@](O)(C(=O)OC)[C@H](OC(C)=O)[C@]5(CC)C=CCN6CC[C@]43[C@@H]65)C2)C1` were 20 nM, 2.7 nM and 4.2 nM.
Taken in the same sequence, the figures for `CC[C@]1(NC(=O)c2cccc(F)c2)C[C@H]2CN(CCc3c([nH]c4ccccc34)[C@@](C(=O)OC)(c3cc4c(cc3OC)N(C)[C@H]3[C@@](O)(C(=O)OC)[C@H](OC(C)=O)[C@]5(CC)C=CCN6CC[C@]43[C@@H]65)C2)C1` were 25 nM, 5.3 nM and 5.7 nM.
As to `CC[C@]1(NC(=O)c2ccc(Oc3ccccc3)cc2)C[C@H]2CN(CCc3c([nH]c4ccccc34)[C@@](C(=O)OC)(c3cc4c(cc3OC)N(C)[C@H]3[C@@](O)(C(=O)OC)[C@H](OC(C)=O)[C@]5(CC)C=CCN6CC[C@]43[C@@H]65)C2)C1`, the 50% inhibitory concentration (IC50) in test [1] was 50 nM; in test [2], 6.5 nM; in test [3], 5.2 nM.
Taken in the same sequence, the figures for `CC[C@]1(NC(=O)C2CCCC2)C[C@H]2CN(CCc3c([nH]c4ccccc34)[C@@](C(=O)OC)(c3cc4c(cc3OC)N(C)[C@H]3[C@@](O)(C(=O)OC)[C@H](OC(C)=O)[C@]5(CC)C=CCN6CC[C@]43[C@@H]65)C2)C1` were 380 nM, 25 nM and 30 nM.
Taken in the same sequence, the figures for `CC[C@]1(NC(=O)c2cnco2)C[C@H]2CN(CCc3c([nH]c4ccccc34)[C@@](C(=O)OC)(c3cc4c(cc3OC)N(C)[C@H]3[C@@](O)(C(=O)OC)[C@H](OC(C)=O)[C@]5(CC)C=CCN6CC[C@]43[C@@H]65)C2)C1` were 65 nM, 3.5 nM and 3.9 nM.
Taken in the same sequence, the figures for `CC[C@]1(NC(=O)c2cccc(C(F)(F)F)c2)C[C@H]2CN(CCc3c([nH]c4ccccc34)[C@@](C(=O)OC)(c3cc4c(cc3OC)N(C)[C@H]3[C@@](O)(C(=O)OC)[C@H](OC(C)=O)[C@]5(CC)C=CCN6CC[C@]43[C@@H]65)C2)C1` were 40 nM, 6.4 nM and 6.2 nM.
Take `CC[C@]1(NC(=O)c2cc(Cl)c(OC)c(Cl)c2)C[C@H]2CN(CCc3c([nH]c4ccccc34)[C@@](C(=O)OC)(c3cc4c(cc3OC)N(C)[C@H]3[C@@](O)(C(=O)OC)[C@H](OC(C)=O)[C@]5(CC)C=CCN6CC[C@]43[C@@H]65)C2)C1`: the IC50 stood at 25 nM in test [1], 4.2 nM in test [2] and 3.1 nM in test [3].
On the same counts, the results for `CC[C@]1(NC(=O)c2ccc3ocnc3c2)C[C@H]2CN(CCc3c([nH]c4ccccc34)[C@@](C(=O)OC)(c3cc4c(cc3OC)N(C)[C@H]3[C@@](O)(C(=O)OC)[C@H](OC(C)=O)[C@]5(CC)C=CCN6CC[C@]43[C@@H]65)C2)C1` are 70 nM, 5.1 nM and 5.4 nM.
In the case of `CC[C@]1(NC(=O)c2coc3ccccc23)C[C@H]2CN(CCc3c([nH]c4ccccc34)[C@@](C(=O)OC)(c3cc4c(cc3OC)N(C)[C@H]3[C@@](O)(C(=O)OC)[C@H](OC(C)=O)[C@]5(CC)C=CCN6CC[C@]43[C@@H]65)C2)C1`, the figures for the concentration for half-maximal inhibition (IC50) in test [1], in test [2] and in test [3] were 35 nM, 4.6 nM and 4 nM, respectively.
For the molecule `CC[C@]1(NC(=O)c2ccc(OC)c(OC)c2)C[C@H]2CN(CCc3c([nH]c4ccc(F)cc34)[C@@](C(=O)OC)(c3cc4c(cc3OC)N(C)[C@H]3[C@@](O)(C(=O)OC)[C@H](OC(C)=O)[C@]5(CC)C=CCN6CC[C@]43[C@@H]65)C2)C1`, the IC50 amounted to 0.9 nM in test [1], 0.08 nM in test [2] and 0.06 nM in test [3].
On the same counts, the results for `CC[C@]1(NC(=O)C(C)(C)C)C[C@H]2CN(CCc3c([nH]c4ccccc34)[C@@](C(=O)OC)(c3cc4c(cc3OC)N(C)[C@H]3[C@@](O)(C(=O)OC)[C@H](OC(C)=O)[C@]5(CC)C=CCN6CC[C@]43[C@@H]65)C2)C1` are 4100 nM, 3600 nM and 2800 nM.
For the molecule `CC[C@]1(NC(=O)c2ccc3ccncc3c2)C[C@H]2CN(CCc3c([nH]c4ccccc34)[C@@](C(=O)OC)(c3cc4c(cc3OC)N(C)[C@H]3[C@@](O)(C(=O)OC)[C@H](OC(C)=O)[C@]5(CC)C=CCN6CC[C@]43[C@@H]65)C2)C1`, the IC50 in test [1] came to 3.7 nM; in test [2], 0.4 nM; in test [3], 0.4 nM.
Turning to `CC[C@]1(NC(=O)C2CCC2)C[C@H]2CN(CCc3c([nH]c4ccccc34)[C@@](C(=O)OC)(c3cc4c(cc3OC)N(C)[C@H]3[C@@](O)(C(=O)OC)[C@H](OC(C)=O)[C@]5(CC)C=CCN6CC[C@]43[C@@H]65)C2)C1`, the results for the IC50 in test [1], in test [2] and in test [3] were 85 nM, 5.4 nM and 5.4 nM, respectively.
For the molecule `CC[C@]1(NC(=O)c2ccc(OC)c(OC(F)(F)F)c2)C[C@H]2CN(CCc3c([nH]c4ccccc34)[C@@](C(=O)OC)(c3cc4c(cc3OC)N(C)[C@H]3[C@@](O)(C(=O)OC)[C@H](OC(C)=O)[C@]5(CC)C=CCN6CC[C@]43[C@@H]65)C2)C1`, the results for the IC50 in test [1], in test [2] and in test [3] were 17 nM, 2.2 nM and 1.7 nM, respectively.
On the same counts, the results for `CC[C@]1(NC(=O)c2ccc(C(C)(C)C)cc2)C[C@H]2CN(CCc3c([nH]c4ccccc34)[C@@](C(=O)OC)(c3cc4c(cc3OC)N(C)[C@H]3[C@@](O)(C(=O)OC)[C@H](OC(C)=O)[C@]5(CC)C=CCN6CC[C@]43[C@@H]65)C2)C1` are 55 nM, 1.9 nM and 0.6 nM.
`CC[C@]1(NC(=O)c2ccc(C)cc2)C[C@H]2CN(CCc3c([nH]c4ccccc34)[C@@](C(=O)OC)(c3cc4c(cc3OC)N(C)[C@H]3[C@@](O)(C(=O)OC)[C@H](OC(C)=O)[C@]5(CC)C=CCN6CC[C@]43[C@@H]65)C2)C1`: the half-maximal inhibitory concentration (IC50) in test [1] is 4.5 nM; in test [2], 0.45 nM; in test [3], 0.5 nM.
On the same counts, the results for `CC[C@]1(NC(=O)C2CCc3ccccc3C2)C[C@H]2CN(CCc3c([nH]c4ccccc34)[C@@](C(=O)OC)(c3cc4c(cc3OC)N(C)[C@H]3[C@@](O)(C(=O)OC)[C@H](OC(C)=O)[C@]5(CC)C=CCN6CC[C@]43[C@@H]65)C2)C1` (stereo not given in full) are 960 nM, 580 nM and 420 nM.
As for `CC[C@]1(NC(=O)c2ccc(OC(F)F)cc2)C[C@H]2CN(CCc3c([nH]c4ccccc34)[C@@](C(=O)OC)(c3cc4c(cc3OC)N(C)[C@H]3[C@@](O)(C(=O)OC)[C@H](OC(C)=O)[C@]5(CC)C=CCN6CC[C@]43[C@@H]65)C2)C1`, the values for the IC50 in test [1], in test [2] and in test [3] were 17 nM, 1.7 nM and 5.9 nM, respectively.
As to `CC[C@]1(N=[N+]=[N-])C[C@H]2CN(CCc3c([nH]c4ccccc34)[C@@](C(=O)OC)(c3cc4c(cc3OC)N(C)[C@H]3[C@@](O)(C(=O)OC)[C@H](OC(C)=O)[C@]5(CC)C=CCN6CC[C@]43[C@@H]65)C2)C1`, the IC50 in test [1] worked out at 5500 nM.
On the same count and under the same terms, the figure for `CC[C@]1(N)C[C@H]2CN(CCc3c([nH]c4ccccc34)[C@@](C(=O)OC)(c3cc4c(cc3OC)N(C)[C@H]3[C@@](O)(C(=O)OC)[C@H](OC(C)=O)[C@]5(CC)C=CCN6CC[C@]43[C@@H]65)C2)C1` is more than 10000 nM; for `CC[C@@H]1C[C@H]2CN(CCc3c([nH]c4ccccc34)[C@@](C(=O)OC)(c3cc4c(cc3OC)N(C)[C@H]3[C@@](O)(C(=O)OC)[C@H](OC(C)=O)[C@]5(CC)C=CCN6CC[C@]43[C@@H]65)C2)C1` [ROSEAMINE] it is 600 nM.
